# Results as given in patent US11911393B2, “Non-catalytic substrate-selective p38alpha-specific MAPK inhibitors with endothelial-stabilizing and anti-inflammatory activity, and methods of use thereof” (University of Maryland, Baltimore, priority 2016, dated 2024).
# Legend:
# [1] = test system: LPS/hyperthermia-induced ALI in CD1 mice; experiment: Mouse i.t. LPS/FRH-induced acute lung injury model; conditions: single i.p. injection of 100-1000 μg UM101, 1000 μg UM60 or 1000 μg SB203580, 30 min before i.t. 50 μg LPS and hyperthermia
# [2] = test system: LPS-induced cytokine expression in PMA-differentiated THP1 cells; experiment: LPS-induced cytokine expression, PCR-based cytokine array; format: cell-based, human; conditions: 25 μM SB203580 or 10, 25, or 100 μM UM101
smiles,measurement,setting,value
"C[S+]([O-])c1ccc(-c2nc(-c3ccncc3)c(-c3ccc(F)cc3)[nH]2)cc1 (centres unmarked) [SB203580, reference compound]",mice that died within 24 h,[1],one of six
same,"LPS-stimulated genes of the array (16) whose expression was inhibited, in words",[2],inhibited expression of seven
